Measurements as given in ChEMBL document CHEMBL1128083, “The anti-rheumatic potential of a series of 2,4-di-substituted-4H-naphtho[1,2-b]pyran-3-carbonitriles” (Bioorg Med Chem Lett, 1995).

Legend:
[1] = Maximum concentration in plasma at Tmax; assay type: ADME, organism-based
Oryctolagus cuniculus [2] = species on record: Oryctolagus cuniculus; experiment: Tested for percent inhibition of Neutral metalloprotease in rabbit chondrocytes at 10 uM concentration; assay type: cell-based
Oryctolagus cuniculus [3] = species on record: Oryctolagus cuniculus; experiment: Tested for percent inhibition of Neutral metalloprotease in rabbit chondrocytes at 1 uM concentration; assay type: cell-based
Oryctolagus cuniculus [4] = species on record: Oryctolagus cuniculus; experiment: Tested for percent inhibition of Neutral metalloprotease in rabbit chondrocytes at 0.1 uM concentration; assay type: cell-based
Rattus norvegicus [5] = species on record: Rattus norvegicus; experiment: Percent reduction in arthritis score was measured in CP-20961 injected rats; NR is no reduction; assay type: functional, organism-based
Rattus norvegicus [6] = species on record: Rattus norvegicus; experiment: Percent inhibition of Concanavalin A stimulated cell proliferation of rat spleen lymphocytes at 0.01 uM; assay type: functional
Rattus norvegicus [7] = species on record: Rattus norvegicus; experiment: Percent inhibition of Concanavalin A stimulated cell proliferation of rat spleen lymphocytes at 0.1 uM; assay type: functional
Rattus norvegicus [8] = species on record: Rattus norvegicus; experiment: Percent inhibition of Concanavalin A stimulated cell proliferation of rat spleen lymphocytes at 1 uM; assay type: functional
Rattus norvegicus [9] = species on record: Rattus norvegicus; experiment: Percent inhibition of Concanavalin A stimulated cell proliferation of rat spleen lymphocytes at 10 uM; assay type: functional
Rattus norvegicus [10] = species on record: Rattus norvegicus; experiment: Percent inhibition of Concanavalin A stimulated cell proliferation of rat spleen lymphocytes at 0.001 uM; assay type: functional
[11] = Time at which the maximum concentration is achieved; assay type: ADME
Rattus norvegicus [12] = species on record: Rattus norvegicus; experiment: Percent reduction in arthritis score was measured in CP-20961 injected rats on day 16; assay type: functional; design: scale not given: the % may be the effect or the level left
Oryctolagus cuniculus [13] = species on record: Oryctolagus cuniculus; experiment: Tested for percent inhibition of Neutral metalloprotease in rabbit chondrocytes at 10 uM concentration; toxic; assay type: cell-based
[14] = Half life was evaluated; assay type: ADME

Row | Structure (SMILES) | Cmax [1] | inhibition (Oryctolagus cuniculus [2]) | inhibition (Oryctolagus cuniculus [3]) | inhibition (Oryctolagus cuniculus [4]) | Activity (Rattus norvegicus [5]) | inhibition at 0.01 µM (Rattus norvegicus [6]) | inhibition at 0.1 µM (Rattus norvegicus [7]) | inhibition at 1 µM (Rattus norvegicus [8]) | inhibition at 10 µM (Rattus norvegicus [9]) | inhibition at 0.001 µM (Rattus norvegicus [10]) | Tmax [11] | Activity (Rattus norvegicus [12]) | inhibition (Oryctolagus cuniculus [13]) | half-life [14]
1 | N#CC1=C(N2C(=O)CCC2=O)Oc2c(ccc3ccccc23)C1c1ccc(F)c(Cl)c1 (stereo not drawn) | 178 ng/mL | 111% | 53% | 26% | No reduction | -16% | 10% | 92% | 98% | 18% | 4 h |  |  | 
2 | N#Cc1c(N)nc2c(c1-c1cccc([N+](=O)[O-])c1)CCc1ccccc1-2 |  | 42% | 36% | 8% |  | 15% | 23% | 23% | 46% | 13% |  |  |  | 
3 | N#CC1=C(n2cccc2)Oc2c(ccc3ccccc23)C1c1cccc([N+](=O)[O-])c1 (stereo not drawn) |  | 4% | -5% | 1% |  |  | -7% | 82% | 87% |  |  |  |  | 
4 | N#CC1=C(N2C(=O)CCC2=O)Oc2c(ccc3ccccc23)C1c1cccnc1 (stereo not drawn) | 55 ng/mL | 25% | 17% |  |  | -6% | -5% | 85% | 87% | 7% | 0.5 h | 41% |  | 
5 | N#CC1=C(N)Oc2c(ccc3ccccc23)C1c1ccc(F)c(Cl)c1 (stereo not drawn) |  |  | 111% | 37% |  | 38% | 83% | 86% | 98% |  |  |  | 81% | 
6 | O=C1CC(c2cccc([N+](=O)[O-])c2)c2ccc3ccccc3c2O1 (stereo not drawn) |  |  |  |  |  | 6% | 9% | 2% | 15% | 19% |  |  |  | 
7 | N#CC1=C(N)OC2=C(CCc3ccccc32)C1c1cccc([N+](=O)[O-])c1 (stereo not drawn) |  | 104% | 76% | 39% |  | 58% | 87% | 95% | 99% | 29% |  |  |  | 
8 | N#CC1=C(N)Oc2c(ccc3ccccc23)C1c1cccnc1 (stereo not drawn) |  | 100% | 83% | 75% |  | 11% | 89% | 95% |  | 0% |  |  |  | 
9 | N#CC1=C(N)Oc2c(ccc3ccccc23)C1c1cccc([N+](=O)[O-])c1 (stereo not drawn) |  | 102% | 76% | 74% |  | 73% | 89% | 95% | 99% | 33% |  |  |  | ~1 h
10 | N#Cc1c(O)nc2c(c1-c1cccc([N+](=O)[O-])c1)CCc1ccccc1-2 |  | 36% | 3% | 36% |  |  |  |  |  |  |  |  |  | 
11 | N#CC1=C(N2C(=O)CCC2=O)Oc2c(ccc3ccccc23)C1c1cccc([N+](=O)[O-])c1 (stereo not drawn) | 5 ng/mL | 86% | 69% | 17% |  | 1% | -4% | 87% | 97% | 9% | 6 h | 48% |  | 
12 | N#CC1C(=O)NC2=C(CCc3ccccc32)C1c1cccc([N+](=O)[O-])c1 (stereo not drawn) |  | 20% | 36% | -7% |  | 8% | 6% | 15% | 22% | 9% |  |  |  | 
